Experimental data from patent US11597739B2, “Enhancing CD8+ T cells for adoptive T cell therapy by inhibiting PTPN1 (PTP1B) and PTPN2 (TC-PTP)” (The Royal Institution for the Advancement of …, priority 2017, dated 2023).

System: OVA expressing EG.7 lymphoma target cells
Assay: Calcein-release cytotoxicity assay of OT-1 CTLs
Assay type: cell-based, mouse
Conditions: OT-1 CD8 cells activated with inhibitor at 50 μM; 5 hours; every effector to target ratio; versus untreated, K882 or K885
Method: 9) Cytotoxicity Experiments
3 days before the experiment thaw a new vial of EG.7 cells. After 24 h in culture, the cells are resuspended at 5×10^4 and 100 U/ml of IFN-γ is added. The day of the experiment, the EG.7 cells are harvested, washed once with HBSS. The EG.7 cells are resuspended at 10^6/ml in HBSS and 10 μM Calcein-AM added. The cells are incubated at 37° C. for 1 hr in the dark, washed twice with complete RPMI and counted. They are then resuspend at 3×10^5/ml.
The following wells from a 0.75×10^6/ml suspension of the CD8 (Effector) cells to have different effector to target ratios are prepared in duplicate. Before plating the effector cells, RPMI complete is added, 50 μl to the 5:1 ratio wells and 90 μl to the 1:1 ratio wells. • 75×10^3 (100 μl) 25:1 ratio. • Dilute the suspension 1:2.5 volumes: • 30×10^3 (100 μl) 10:1 ratio. • 15×10^3 (50 μl) 5:1 ratio. • 3×10^3 (10 μl) 1:1 ratio. • Prepare at least 2 wells with 100 μl of RPMI complete.
100 μl of EG.7 (Target) cells is added and spin at 400×g for 2 minutes, RT. […]
For Controls: Background fluorescence (BF): Harvest 100 μl supernatant from control wells. Absolut fluorescence (AF): Add 100 μl of methanol to the control wells harvested for background. […]
Calculate the specific cell lysis as follows: Specific cell lysis=((Sample−BF)/(AF−BF))×100 10) Flow Cytometry 1. […] Record cell quantity transfers per tube; • b. […]

CCOC(=O)c1cc2cc(C(F)(F)P(=O)(O)O)c(Br)cc2s1 [Ex. 1, ((6-BROMO-2-(ETHOXYCARBONYL)BENZO[B]THIOPHEN-5-YL)DIFLUOROMETHYL)PHOSPHONATE]
specific cytotoxicity (lysis of EG.7 cells): lysed EG.7 cells with greater efficiency
